Results as given in patent publication US12157746B2, “Tetrahydro-1H-pyrazino[2,1-a]isoindolylquinoline compounds for the treatment of autoimmune disease” (F. HOFFMANN-LA ROCHE AG, priority 2018, dated 2024).

assay: Human microsomal stability assay; format: in vitro ADME; conditions: human liver microsomes 0.5 mg/mL, 37° C., pH 7.4, NADPH regenerating system, 0-30 minutes
Procedure: Human Microsomal Stability Assay
Human liver microsomes (Cat. NO.: 452117, Corning, USA) were preincubated with test compound for 10 minutes at 37° C. in 100 mM potassium phosphate buffer, pH 7.4. The reactions were initiated by adding NADPH regenerating system. The final incubation mixtures contained […] test compound, 0.5 mg/mL liver microsomal protein, 1 mM MgCl2, 1 mM NADP, 1 unit/mL isocitric dehydrogenase and 6 mM isocitric acid in 100 mM potassium phosphate buffer, pH 7.4. After incubation times of 0, 3, 6, 9, 15 and 30 minutes at 37° C., 300 μL of cold ACN (including internal standard) was added to 100 μL incubation mixture to terminate the reaction. Following precipitation and centrifugation, 100 μL supernatant will be taken out and added 300 uL water. The amount of compound remaining in the samples was determined by LC-MS/MS. Controls of no NADPH regenerating system at zero and 30 minutes were also prepared and analyzed. The results were categorized as: low (<7.0 mLJmin/kg), medium (7.0-16.2 mL/min/kg) and high (16.2-23.2 mLJmin/kg).

Row | Structure (SMILES) | CL (h)
1 | CO[C@@H]1CN(c2ccc3c(c2)CN2C3CN(c3ccc(C#N)c4ncccc34)C[C@H]2C)C[C@@H]1N (relative stereo) [Example 17, 5-[(4R,10bS)-8-[cis-3-amino-4-methoxy-pyrrolidin-1-yl]-4-methyl-3,4,6,10b-tetrahydro-1H-pyrazino[2,1-a]isoindol-2-yl]quinoline-8-carbonitrile] | 6.2 mL/min/kg
2 | C[C@@H]1CN(c2ccc(C#N)c3ncccc23)CC2c3ccc(N4C[C@H](N)[C@@H](O)C4)cc3CN21 (relative stereo) [Example 21, 5-[(4R,10bS)-8-[trans-3-amino-4-hydroxy-pyrrolidin-1-yl]-4-methyl-3,4,6,10b-tetrahydro-1H-pyrazino[2,1-a]isoindol-2-yl]quinoline-8-carbonitrile] | 6.2 mL/min/kg
3 | CO[C@H]1CN(c2ccc3c(c2)CN2C3CN(c3ccc(C#N)c4ncccc34)C[C@H]2C)C[C@@H]1N (single isomer, unassigned) [Example 16A] | 8.5 mL/min/kg
4 | COC1CN(c2ccc3c(c2)CN2C3CN(c3ccc(C#N)c4ncccc34)C[C@H]2C)CC1N (single isomer, unassigned) [Example 16B] | 8.1 mL/min/kg
5 | C[C@@H]1CN(c2ccc(C#N)c3ncccc23)C[C@@H]2c3ccc(N4C[C@@H](N)[C@H](O)C4)cc3CN12 (single isomer, unassigned) [Example 40B] | 7.6 mL/min/kg
6 | N#Cc1ccc(N2CCN3Cc4cc(N5CCNCC5)ccc4C3C2)c2scnc12 (centres unmarked) [Example 4, 7-(8-piperazin-1-yl-3,4,6,10b-tetrahydro-1H-pyrazino[2,1-a]isoindol-2-yl)-1,3-benzothiazole-4-carbonitrile] | 6.2 mL/min/kg
7 | C[C@@H]1CN(c2ccc(C#N)c3ncsc23)C[C@@H]2c3ccc(N4CCNCC4)cc3CN12 [Example 6, 7-[(4R,10bS)-4-methyl-8-piperazin-1-yl-3,4,6,10b-tetrahydro-1H-pyrazino[2,1-a]isoindol-2-yl]-1,3-benzothiazole-4-carbonitrile] | 6.6 mL/min/kg
8 | C[C@@H]1CN(c2ccc(C#N)c3nccnc23)C[C@@H]2c3ccc(N4CCNCC4)cc3CN12 [Example 7, 8-[(4R,10bS)-4-methyl-8-piperazin-1-yl-3,4,6,10b-tetrahydro-1H-pyrazino[2,1-a]isoindol-2-yl]quinoxaline-5-carbonitrile] | 7.8 mL/min/kg
9 | C[C@@H]1CN(c2ccc(C#N)c3ncccc23)C[C@@H]2c3ccc(N4CCNC[C@H]4CO)cc3CN12 [Example 11, 5-[(4R,10S)-8-[(2S)-2-(hydroxymethyl)piperazin-1-yl]-4-methyl-3,4,6,10b-tetrahydro-1H-pyrazino[2,1-a]isoindol-2-yl]quinoline-8-carbonitrile] | 6.2 mL/min/kg
10 | C[C@@H]1CN(c2ccc(C#N)c3ncccc23)C[C@@H]2c3ccc(N4CCN[C@H](CO)C4)cc3CN12 [Example 12, 5-[(4R,10bS)-8-[(3S)-3-(hydroxymethyl)piperazin-1-yl]-4-methyl-3,4,6,10b-tetrahydro-1H-pyrazino[2,1-a]isoindol-2-yl]quinoline-8-carbonitrile] | 6.2 mL/min/kg
11 | C[C@@H]1CN(c2ccc(C#N)c3ncccc23)C[C@@H]2c3ccc(N4CCC(N)(CO)C4)cc3CN12 (stereo partly drawn) [Example 19, 5-[(4R,10bS)-8-[3-amino-3-(hydroxymethyl)pyrrolidin-1-yl]-4-methyl-3,4,6,10b-tetrahydro-1H-pyrazino[2,1-a]isoindol-2-yl]quinoline-8-carbonitrile] | 7.7 mL/min/kg
12 | C[C@@H]1CN(c2ccc(C#N)c3ncccc23)C[C@@H]2c3ccc(N4CC[C@@H](N)C4)cc3CN12 [Example 20, 5-[(4R,10bS)-8-[(3R)-3-aminopyrrolidin-1-yl]-4-methyl-3,4,6,10b-tetrahydro-1H-pyrazino[2,1-a]isoindol-2-yl]quinoline-8-carbonitrile] | 6.5 mL/min/kg
13 | C[C@@H]1CN(c2ccc(C#N)c3ncccc23)C[C@@H]2c3ccc(OCCN(C)C)cc3CN12 [Example 25, 5-[(4R,10bS)-8-[2-(dimethylamino)ethoxy]-4-methyl-3,4,6,10b-tetrahydro-1H-pyrazino[2,1-a]isoindol-2-yl]quinoline-8-carbonitrile] | 8.0 mL/min/kg
14 | C[C@@H]1CN(c2ccc(C#N)c3ncccc23)C[C@@H]2c3ccc(NCCN(C)C)cc3CN12 [Example 26, 5-[(4R,10bS)-8-[2-(dimethylamino)ethylamino]-4-methyl-3,4,6,10b-tetrahydro-1H-pyrazino[2,1-a]isoindol-2-yl]quinoline-8-carbonitrile] | 6.2 mL/min/kg
15 | C[C@@H]1CN(c2ccc(C#N)c3ncccc23)C[C@@H]2c3ccc(NC4CNC4)cc3CN12 [Example 28, 5-[(4R,10S)-8-(azetidin-3-ylamino)-4-methyl-3,4,6,10b-tetrahydro-1H-pyrazino[2,1-a]isoindol-2-yl]quinoline-8-carbonitrile] | 8.7 mL/min/kg
16 | C[C@@H]1CN(c2ccc(C#N)c3ncccc23)C[C@@H]2c3ccc(N[C@@H]4CNC[C@@H]4F)cc3CN12 [Example 32, 5-[(4R,10bS)-8-[[(3R,4S)-4-fluoropyrrolidin-3-yl]amino]-4-methyl-3,4,6,10b-tetrahydro-1H-pyrazino[2,1-a]isoindol-2-yl]quinoline-8-carbonitrile] | 8.7 mL/min/kg
17 | C[C@@H]1CN(c2ccc(C#N)c3ncccc23)C[C@@H]2c3ccc(N4CC5(CNC5)C4)cc3CN12 [Example 36, 5-[(4R,10bS)-8-(2,6-diazaspiro[3.3]heptan-2-yl)-4-methyl-3,4,6,10b-tetrahydro-1H-pyrazino[2,1-a]isoindol-2-yl]quinoline-8-carbonitrile] | 6.2 mL/min/kg
18 | C[C@@H]1CN(c2ccc(C#N)c3ncccc23)C[C@@H]2c3ccc(N4CC5(CCN5)C4)cc3CN12 [Example 37, 5-[(4R,10bS)-8-(1,6-diazaspiro[3.3]heptan-6-yl)-4-methyl-3,4,6,10b-tetrahydro-1H-pyrazino[2,1-a]isoindol-2-yl]quinoline-8-carbonitrile] | 6.5 mL/min/kg
19 | C[C@@H]1CN(c2ccc(C#N)c3ncccc23)C[C@@H]2c3ccc(N4CC5(CN(C)C5)C4)cc3CN12 [Example 38, 5-[(4R,10bS)-4-methyl-8-(6-methyl-2,6-diazaspiro[3.3]heptan-2-yl)-3,4,6,10b-tetrahydro-1H-pyrazino[2,1-a]isoindol-2-yl]quinoline-8-carbonitrile] | 6.2 mL/min/kg
20 | C[C@@H]1CN(c2ccc(C#N)c3ncccc23)C[C@@H]2c3ccc(N4C[C@H](N)[C@@H](O)C4)cc3CN12 [Example 40A, 5-[(4R,10bS)-8-[(3S,4S)-3-amino-4-hydroxy-pyrrolidin-1-yl]-4-methyl-3,4,6,10b-tetrahydro-1H-pyrazino[2,1-a]isoindol-2-yl]quinoline-8-carbonitrile] | 7.0 mL/min/kg
21 | C[C@@H]1CN(c2ccc(C#N)c3ncccc23)C[C@@H]2c3ccc(N4C[C@@H](N)[C@](C)(O)C4)cc3CN12 [Example 45, 5-[(4R,10bS)-4-methyl-8-[trans-(3R,4R)-4-amino-3-hydroxy-3-methyl-pyrrolidin-1-yl]-3,4,6,10b-tetrahydro-1H-pyrazino[2,1-a]isoindol-2-yl]quinoline-8-carbonitrile] | 6.2 mL/min/kg
22 | C[C@@H]1CN(c2ccc(C#N)c3ncccc23)C[C@@H]2c3ccc(N4C[C@@H](N)[C@](C)(O)C4)cc3CN12 [Example 45A, 5-[(4R,10bS)-8-[(3R,4R)-4-amino-3-hydroxy-3-methyl-pyrrolidin-1-yl]-4-methyl-3,4,6,10b-tetrahydro-1H-pyrazino[2,1-a]isoindol-2-yl]quinoline-8-carbonitrile] | 6.2 mL/min/kg
23 | C[C@@H]1CN(c2ccc(C#N)c3ncccc23)C[C@@H]2c3ccc(N4C[C@H](N)[C@@](C)(O)C4)cc3CN12 [Example 45B, 5-[(4R,10bS)-8-[(3S,4S)-4-amino-3-hydroxy-3-methyl-pyrrolidin-1-yl]-4-methyl-3,4,6,10b-tetrahydro-1H-pyrazino[2,1-a]isoindol-2-yl]quinoline-8-carbonitrile] | 6.2 mL/min/kg
24 | C[C@@H]1CN(c2ccc(C#N)c3ncccc23)C[C@@H]2c3ccc(N4C[C@@H](F)[C@@H](N)C4)cc3CN12 [Example 46, 5-[(4R,10bS)-8-[(3S,4R)-3-amino-4-fluoro-pyrrolidin-1-yl]-4-methyl-3,4,6,10b-tetrahydro-1H-pyrazino[2,1-a]isoindol-2-yl]quinoline-8-carbonitrile] | 8.8 mL/min/kg
25 | C[C@@H]1CN(c2ccc(C#N)c3ncccc23)C[C@@H]2c3ccc(N4C[C@@H](N)[C@H](F)C4)cc3CN12 [Example 48, 5-[(4R,10bS)-8-[(3R,4R)-3-amino-4-fluoro-pyrrolidin-1-yl]-4-methyl-3,4,6,10b-tetrahydro-1H-pyrazino[2,1-a]isoindol-2-yl]quinoline-8-carbonitrile] | 8.9 mL/min/kg
26 | C[C@@H]1CN(c2ccc(C#N)c3ncccc23)C[C@@H]2c3ccc(N4CCOC5CNCC54)cc3CN12 (stereo partly drawn) [Example 52, 5-[(4R,10bS)-8-(3,4a,5,6,7,7a-hexahydro-2H-pyrrolo[3,4-b][1,4]oxazin-4-yl)-4-methyl-3,4,6,10b-tetrahydro-1H-pyrazino[2,1-a]isoindol-2-yl]quinoline-8-carbonitrile] | 8.1 mL/min/kg
